Measurements as given in a melting point compilation (Tetko et al.; mined from patent text by program, amines drawn as free bases though some values may be those of a salt).

Compared with `OC(COc1cccc(-c2cc[nH]n2)c1)CN1CCN(c2ccc(Cl)cc2)CC1` (stereo not given), `CC(C)c1cn2ccccc2c1S(=O)(=O)c1ccc(OCCCN2CCN(c3ccccc3)CC2)cc1` is lower in melting point: 152 to 153 °C for the first, 135 to 136 °C for the second.

Compared with `Cc1cc(C[C@H](N)[C@H](O)c2ccc(F)cc2)cc(OC(F)(F)C(F)F)c1` (racemic), `CN(c1ccc(OC(F)(F)C(F)F)cc1)c1c([N+](=O)[O-])cc([N+](=O)[O-])cc1C(F)(F)F` is lower in melting point: 96 to 98 °C for the first, 91 to 92 °C for the second.

First: O=C(Nc1ccc(C(F)(F)F)cc1)NC1CCN(S(=O)(=O)c2ccc(Cl)cc2)CC1
Second: CC1CCCCN1C(=O)C=Cc1ccc(C(F)(F)F)cc1 (stereo not given)
The melting point of the first is higher: 266 to 270 °C for the first, 88 to 89 °C for the second.

First: CCc1nn(C2CCCC2)c2cc(C(=O)NCCc3ccncc3)ccc12
Second: CS(=O)(=O)c1ccccc1-c1cc(CCO)nn1C1CCCCC1
The melting point of the first is higher: 123 to 126 °C for the first, 108 °C for the second.

First: COc1ccc(Cl)cc1C(=O)NC1COc2cc(C)ccc2C1=O (stereo not given)
Second: COc1ccccc1C1=CC(=O)CCC1CC(=O)O (stereo not given)
The melting point of the first is lower: 177 to 178 °C for the first, 183 to 184 °C for the second.

Compared with `COc1ccc2c3cc(C)ccc3n(CC3CCCCC3)c2c1`, `O=C(CC1CCCCC1)Nc1c(Cl)ccc2nc(CCCCc3nnn[nH]3)ccc12` is higher in melting point: 136 to 137 °C for the first, 192 to 195 °C for the second.

First: CCOc1ccc(S(=O)(=O)N2CCN(C)CC2)cc1-c1nc2cccnc2c(=O)[nH]1
Second: CCOc1cc(OCC)cc(-c2cncn2-c2ccc(S(C)(=O)=O)cc2)c1
The melting point of the first is higher: 212 to 215 °C for the first, 100 to 101 °C for the second.

First: CCCc1ccccc1OCCCOc1ccc2c(=O)cc(C(N)=O)oc2c1
Second: N#Cc1ccc(OCCCCOc2cccc(-c3cc4cc(C#N)ccc4o3)c2)cc1
The melting point of the first is higher: 210 to 213 °C for the first, 130 to 132 °C for the second.

First: O=C(NN1CCCN(C(=O)OCc2ccccc2)CC1)c1ccc(F)cc1
Second: CCOC(=O)c1ccc(NC(=O)CNc2ccccc2F)cc1
The melting point of the first is lower: 116 to 118 °C for the first, 169 to 170 °C for the second.

Compared with `CCCc1nc2c(N)nc3ccccc3c2n1O`, `COc1ccccc1-n1c(CCl)nc2ccccc2c1=O` is lower in melting point: 232 to 235 °C for the first, 193 to 194 °C for the second.

First: CN=C(Nc1cc(Cl)cc(Cl)c1)N1CCN(c2ccc(OC(C)=O)cc2OC)CC1
Second: O=C(O)[C@H]1C[C@H](NC(=S)Nc2ccccc2)c2c(Cl)cc(Cl)cc2N1 (relative stereo)
The melting point of the first is lower: 144 °C for the first, 186 to 187 °C for the second.

Compared with `O=C(CCCN1CCC2(CC1)SC(c1ccc(Cl)cc1)c1ccccc12)c1ccc(F)cc1F` (stereo not given), `O=S1(=O)c2cccc3cccc(c23)N1CCCN1CCC(c2ccc(Cl)cc2)CC1` is higher in melting point: 98 to 100 °C for the first, 111 °C for the second.

Compared with `CC(C#N)=C1CCN(c2ccc(N3C[C@H](CO)OC3=O)cc2F)CC1`, `CCn1c(CCSC)nc(N2CCc3ccccc3CC2)c(C#N)c1=O` is higher in melting point: 100 to 102 °C for the first, 102 to 104 °C for the second.

Compared with `CCOC(=O)Cn1c(=O)[nH]c(=O)c2cc(Cl)c(Cl)cc21`, `CCOC(=O)c1ccoc1COc1cc(-c2nn(C)c(OC(F)F)c2Cl)c(F)cc1Cl` is lower in melting point: greater than 280 °C for the first, 59 to 61 °C for the second.

First: Nc1c(Oc2ccc(F)c(C(F)(F)F)c2)nc(Br)nc1Oc1ccc(F)c(C(F)(F)F)c1
Second: FC(F)(F)COc1nc(NCc2ccc(C(F)(F)F)cc2)nc(Nc2ccc3cc[nH]c3c2)n1
The melting point of the first is higher: 184 to 186 °C for the first, 119 to 121 °C for the second.

Compared with `CNC(=S)NCCn1c(=O)ccc2c(C)cc(C)nc21`, `CCN(CC)C(=O)Cc1c(-c2ccc(Cl)cc2)nc2c(C)cc(C)nn12` is lower in melting point: 216 to 218 °C for the first, 162 to 165 °C for the second.

First: CC(C)Oc1ccc(-n2c(C(=O)NCCNC(=O)OC(C)(C)C)c(Cl)c3cc(Oc4ccc(C(F)(F)F)cn4)ccc32)cc1
Second: Cc1cc(SCc2ccc(OCc3ccc(OC(F)(F)F)cc3)cc2)ccc1OCC(=O)O
The melting point of the first is higher: 184 to 185 °C for the first, 141 to 142 °C for the second.

First: CC(=O)OC1CSC(Oc2ccc(-c3ccc(F)nc3)nc2)C(OC(C)=O)C1OC(C)=O (stereo not given)
Second: Cc1ccc(CN2CCC(OC(=O)c3ccc(C)cc3)CC2)cc1
The melting point of the first is higher: 185 °C for the first, 66 to 77 °C for the second.

First: OC(c1ccccc1)(c1ccccc1-c1ccccc1)C1CCNCC1 (stereo not given)
Second: O=C(O)Cc1ccc2oc(-c3ccccc3)nc2c1
The melting point of the first is higher: 185 to 186 °C for the first, 175 °C for the second.

First: CC1(C)Cc2c(c(O)cc3c2C(c2cccc(Br)c2)=NCC3(C)C)O1
Second: CC1(C)CCC(C)(C)c2cc3cc(-c4ccc(C(=O)O)cc4)ccc3cc21
The melting point of the first is lower: 230 to 235 °C for the first, 282 °C for the second.

First: CCOC(=O)CCc1c[nH]c(-c2cccs2)c1
Second: CCOC(=O)c1ccc(NCCC[Si](C)(C)C)cc1
The melting point of the first is lower: 39 to 40 °C for the first, 64 to 66 °C for the second.

Compared with `N#CCN1CCC(c2noc3cc(F)ccc23)CC1`, `COc1ccc(C2CCN(CCCCc3ccccc3)CC2)cc1` is lower in melting point: 130 to 132 °C for the first, 48 to 50 °C for the second.

First: CCn1cc(C(=O)c2ccccc2)c(=O)c2cn(C)nc21
Second: Cc1cc(CO)nc(Nc2ccccc2)n1
The melting point of the first is higher: 217 to 218 °C for the first, 118 to 120 °C for the second.

First: CNC(=O)ON=C1SC(C)(C)N=C1C
Second: CCCC(=O)Nc1c(C)c(C)c2c(c1C)C(c1ccc(C(C)C)cc1)C(C)(C)O2 (stereo not given)
The melting point of the first is lower: 90 to 92 °C for the first, 120 to 122 °C for the second.

First: CCOC(=O)/C=C/c1ccc(/C=C(\C)c2ccc3c(c2)C(C)(C)CCC3(C)C)cc1
Second: Cc1cccc(C)c1NC(=O)c1ccc(O)cc1
The melting point of the first is lower: 126 to 127 °C for the first, 232 to 234 °C for the second.

First: C=CCOc1ccc(CC(NC(O)OC(C)(C)C)C(=O)NC(C(=O)NC(C=C)C(=O)OC)C(C)C)cc1 (stereo not given)
Second: CC(C)c1ccc2c(c1)c(SCC1CC1)c(CC(C)(C)C(=O)O)n2Cc1ccc(Cl)cc1
The melting point of the first is lower: 104 to 106 °C for the first, 123 to 124 °C for the second.

Compared with `O=C1COC(CCc2ccccc2)CN1` (stereo not given), `CCCNC(=O)N(C)Cc1cccc2c1CN(C1CCC(=O)NC1=O)C2=O` (stereo not given) is higher in melting point: 100 to 102 °C for the first, 220 to 222 °C for the second.

First: CCc1ccc(NCc2cc(OC)c(OC)c(OC)c2)cc1
Second: COc1ccc(-c2nn(-c3ccsc3)c3c(Cl)cccc23)cc1
The melting point of the first is lower: 64 to 66 °C for the first, 111 °C for the second.

First: CCOC(=O)c1cnn2c1c(OCC)nc1c(C)nn(C)c12
Second: Cc1cc(O)n2nc(CBr)nc2n1
The melting point of the first is lower: 116 to 118 °C for the first, 217 to 222 °C for the second.

Compared with `O=C1C(=O)c2ccccc2C2=C1SCC1(CCN(C(=O)Cc3ccc(Cl)cc3)CC1)O2`, `COc1ccc2c(c1)C(C)(N1C(=O)c3ccccc3C1=O)C(=O)N2c1ccc(F)cc1` (stereo not given) is higher in melting point: 120 to 125 °C for the first, 207 to 208 °C for the second.

First: CC12CCC(=O)C=C1CCC1C3CC(OCC4CO4)C(O)(C(=O)CO)C3(C)CC(O)C12F (stereo not given)
Second: CC1(C)CC(=O)OC(NCCCCN2CCN(c3ncccn3)CC2)N1 (stereo not given)
The melting point of the first is higher: 191 to 192 °C for the first, 124 to 126 °C for the second.

First: COc1nc(Cc2ccccc2NS(=O)(=O)C(F)(F)F)nc(OC)n1
Second: COc1cc2c(cc1-c1ccccc1F)NC(=O)CC(c1cc(C#N)ccc1F)=N2
The melting point of the first is lower: 101 to 108 °C for the first, greater than 250 °C for the second.

First: Cc1ccc(S(=O)(=O)OCC2Cc3cccc(-c4cccc(F)c4)c3O2)cc1 (stereo not given)
Second: O=C(O)Cc1ccc(F)cc1Sc1ccc([N+](=O)[O-])cc1
The melting point of the first is lower: 88 to 90 °C for the first, 160 to 164 °C for the second.

First: CSC(=CC(=O)c1cnccn1)SC
Second: Cc1oncc1C(=O)Nc1ccc(N)cc1
The melting point of the first is higher: 155 °C for the first, 123 to 128 °C for the second.

Compared with `CCN1CS(=O)c2cccc(Cl)c21` (stereo not given), `CN(C)Cc1nc(CSCCNC(=N)N[N+](=O)[O-])cs1` is higher in melting point: 94 to 98 °C for the first, 104 to 106 °C for the second.
